B1: 42CQ-6501: 42CQ, an AFFIMER polypeptide binding serum albumin (SEQ ID NO: 133), conjugated with 6501 (conjugate)
chain: MIPRGLSEAKPATPEIQEIVDKVKPQLEEKTNETYGKLEAVQYKTQVLANFFQRRWPGSTNYYIKVRAGDNKYMHLKVFNGPWKFRNTDRGADRVLTGYQVDKNKDDELTGFAAAGGRAEQKLISEEDLGCAENLYFQGGAAGHHHHHH
modifications: conjugated with 6501

What was measured:
mouse tumor model = test: EC50 / maximum tolerated dose studies, mice; assay type: in vivo
Description: (§1) Half-maximal effective concentration (EC50) studies were undertaken to examine the difference between mice and rats administered talabostat alone (FIG. 4A) and mice and rats administered the therapeutic conjugates comprising talabostat (FIG. 4B). When talabostat is administered alone, the talabostat maximum tolerated dose (MTD) is about 3 mg/m^2 in a mouse tumor model and 0.18 mg/m^2 in rats. That is, the talabostat MTD is 1/17 the tumor model EC50 (FIG. 4A). In contrast, when the talabostat is administered as part of the therapeutic conjugate, the MTD is 160 mg/m^2 in the mouse model and the EC50 for rats is greater than 500 mg/m^2 (FIG. 4B). Talabostat, as part of the therapeutic conjugate, can be administered to rats and mice at therapeutically effective doses.

rats = test: EC50 / maximum tolerated dose studies, rats; assay type: in vivo, rat
Description: as §1

G-CSF [1] = conditions: VbP alone, known; cited from earlier work
G-CSF [2] = test: G-CSF serum cytokine response in nontumor-bearing BALB/c mice (ELISA); assay type: in vivo; conditions: 200 μg/mouse intraperitoneal, six hours after dosing (FIG. 23)
Description: The FAP-activated prodrug G-CSF serum cytokine response in nontumor-bearing BALB/c mice was examined. Female BALB/c mice of 11-12 weeks of age were injected intraperitonially with vehicle (PBS), 42CQ-6501, or 42CQ-6501+MSA at 200 μg/mouse, in groups of 5 mice per treatment.
While cytokine recruitment is believed to play an important role in tumor immunity, its presence in the serum represents a systemic response, which can lead to unwanted adverse effects. […] 42CQ is an AFFIMER® polypeptide designed to bind to serum albumin (SEQ ID NO: 133). Consequently, the 42CQ-based conjugates (with 6501) were prepared with or without prebinding to MSA to determine whether there was an evident difference between the two formulations.
Six hours after dosing, blood was collected to measure G-CSF in the serum using a mouse G-CSF Quantikine ELISA kit.

Molecule	maximum tolerated dose (MTD) (mouse tumor model; mouse tumor model)	talabostat MTD relative to the tumor model EC50 (mouse tumor model; talabostat administered alone (FIG. 4A))	maximum tolerated dose (MTD) (rats)	serum G-CSF response (G-CSF [1])	serum concentration of G-CSF (G-CSF [2])
CC(C)[C@H](N)C(=O)N1CCC[C@H]1B(O)O [Talabostat, Val-boroPro]	about 3 mg/m^2	1/17	0.18 mg/m^2	large serum G-CSF response	
B1					significant increase
